In US9023821B2, “Use of MicroRNA for treating diseases associated with a dysfunction of the cilia in multiciliated epithelial cells” (Centre National de la Recherche Scientifique, priority 2009, dated 2015):

Experiments:
[1] = test system: human airway epithelial cells (HAECs); test: High-throughput sequencing (HTS) of miRNAs at four stages of differentiation of HAECs; conditions: for Modulation (ratio of the level of intensity of expression in log2 in two stages of differentiation) measured by high-throughput sequencing, D7 − D0 / Modulation (ratio of the level of intensity of expression in log2 in two stages of differentiation) measured by high-throughput sequencing, FC − D7 / Modulation (ratio of the level of intensity of expression in log2 in two stages of differentiation) measured by high-throughput sequencing, WD − D0 / Modulation (ratio of the level of intensity of expression in log2 in two stages of differentiation) measured by high-throughput sequencing, WD − FC / Level of intensity of expression in log2 measured by high-throughput sequencing, D0 / Level of intensity of expression in log2 measured by high-throughput sequencing, D7 / Level of intensity of expression in log2 measured by high-throughput sequencing, FC / Level of intensity of expression in log2 measured by high-throughput sequencing, WD: Table VI; for Level of intensity of expression in log2 At the differentiated stage (WD) measured in HTS: healthy human airway epithelial tissue; for Level of intensity of expression in log2 measured by high-throughput sequencing, D0: stage D0; for Level of intensity of expression in log2 measured by high-throughput sequencing, D7: stage D7; for Level of intensity of expression in log2 measured by high-throughput sequencing, FC: stage FC; for Level of intensity of expression in log2 At the differentiated stage (WD) measured in HTS / Level of intensity of expression in log2 measured by high-throughput sequencing, WD: stage WD
How it was run: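 Differentiation time course at air-liquid interface: 0, 7, ~14 (first cilia) and ~21 days (fully differentiated). Sequencing counts per strand were normalized to 10^6 sequences and analysed by linear model with empirical Bayesian moderation.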

[2] = test system: human airway epithelial cells (HAECs); test: Agilent miRNA chips, miRNA expression at four stages of differentiation of HAECs; conditions: for Modulation (ratio of the level of intensity of expression in log2 in two stages of differentiation) measured with the Agilent chips, D7 − D0 / Modulation (ratio of the level of intensity of expression in log2 in two stages of differentiation) measured with the Agilent chips, FC − D7 / Modulation (ratio of the level of intensity of expression in log2 in two stages of differentiation) measured with the Agilent chips, WD − D0 / Modulation (ratio of the level of intensity of expression in log2 in two stages of differentiation) measured with the Agilent chips, WD − FC / Level of intensity of expression in log2 measured with the Agilent chips, D0 / Level of intensity of expression in log2 measured with the Agilent chips, D7 / Level of intensity of expression in log2 measured with the Agilent chips, FC / Level of intensity of expression in log2 measured with the Agilent chips, WD: Table VI; for Modulation (ratio of the level of intensity of expression in log2 at two stages of differentiation), FC − D7 / Modulation (ratio of the level of intensity of expression in log2 at two stages of differentiation), WD − FC: Agilent miRNA chips, Table V; for Level of intensity of expression in log2 measured with the Agilent chips, D0: stage D0; for Level of intensity of expression in log2 measured with the Agilent chips, D7: stage D7; for Level of intensity of expression in log2 measured with the Agilent chips, FC: stage FC; for Level of intensity of expression in log2 measured with the Agilent chips, WD: stage WD
How it was run: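 To benchmark sequencing, the microRNAome was also profiled by hybridizing labelled RNA from identical patient samples to v2 arrays with miRBase v.12.0 human content (866 miRNAs) and 89 viral miRNAs.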

[3] = test system: basal cells and pyramidal cells of the airway epithelium; test: miRNA expression in sorted basal cells versus pyramidal cells (ciliated + secretory), HTS and Agilent chips; design: species or system human; conditions: for Modulation of expression of the miRNAs in pyramidal cells (323(−)) relative to basal cells 323(+): HTS and Agilent chips; for Intensity of the level of expression in log2 in pyramidal cells (323(−)): pyramidal cells (ciliated + secretory)
How it was run: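 Sorted basal versus ciliated/mucus-secreting cells; markers CD151 and tissue factor; donors n=3; miRNA by Agilent chip or HTS.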

Substance | Modulation (ratio of the level of intensity of expression in log2 in two stages of differentiation) measured by high-throughput sequencing, D7 − D0 [1] [log2] | Modulation (ratio of the level of intensity of expression in log2 in two stages of differentiation) measured by high-throughput sequencing, FC − D7 [1] [log2] | Modulation (ratio of the level of intensity of expression in log2 in two stages of differentiation) measured by high-throughput sequencing, WD − D0 [1] [log2] | Modulation (ratio of the level of intensity of expression in log2 in two stages of differentiation) measured by high-throughput sequencing, WD − FC [1] [log2] | Level of intensity of expression in log2 At the differentiated stage (WD) measured in HTS [1] [log2] | Level of intensity of expression in log2 measured by high-throughput sequencing, D0 [1] [log2] | Level of intensity of expression in log2 measured by high-throughput sequencing, D7 [1] [log2] | Level of intensity of expression in log2 measured by high-throughput sequencing, FC [1] [log2] | Level of intensity of expression in log2 measured by high-throughput sequencing, WD [1] [log2] | Modulation (ratio of the level of intensity of expression in log2 in two stages of differentiation) measured with the Agilent chips, D7 − D0 [2] [log2] | Modulation (ratio of the level of intensity of expression in log2 at two stages of differentiation), FC − D7 [2] [log2] | Modulation (ratio of the level of intensity of expression in log2 in two stages of differentiation) measured with the Agilent chips, FC − D7 [2] [log2] | Modulation (ratio of the level of intensity of expression in log2 in two stages of differentiation) measured with the Agilent chips, WD − D0 [2] [log2] | Modulation (ratio of the level of intensity of expression in log2 at two stages of differentiation), WD − FC [2] [log2] | Modulation (ratio of the level of intensity of expression in log2 in two stages of differentiation) measured with the Agilent chips, WD − FC [2] [log2] | Level of intensity of expression in log2 measured with the Agilent chips, D0 [2] [log2] | Level of intensity of expression in log2 measured with the Agilent chips, D7 [2] [log2] | Level of intensity of expression in log2 measured with the Agilent chips, FC [2] [log2] | Level of intensity of expression in log2 measured with the Agilent chips, WD [2] [log2] | Modulation of expression of the miRNAs in pyramidal cells (323(−)) relative to basal cells 323(+) [3] | other results
hsa-miR-374a: human miRNA, SEQ ID No. 42 (UUAUAAUACAACCUGAUAAGUG; expressed or natural sequence; listed as Homo sapiens) | −0.33 | 1.74 | 2.16 | 0.74 | 11.87 | 0.62 | 0.30 | 2.04 | 2.78 | 1.41 | −0.54 | −0.54 | 0.79 | −0.08 | −0.08 | 7.04 | 8.45 | 7.91 | 7.83 | −1.04 | Intensity of the level of expression in log2 in basal cells (323(+)) [3]: 4.26 log2; Intensity of the level of expression in log2 in pyramidal cells (323(−)) [3]: 3.22 log2
hsa-miR-96: human miRNA, SEQ ID No. 51 (UUUGGCACUAGCACAUUUUUGCU; expressed or natural sequence; listed as Homo sapiens) | −0.08 | −0.71 | 0.02 | 0.81 | 12.65 | 5.41 | 5.33 | 4.62 | 5.43 | 1.19 | −0.50 | −0.50 | 0.64 | −0.04 | −0.04 | 8.52 | 9.71 | 9.21 | 9.16 | −1.51 | Intensity of the level of expression in log2 in basal cells (323(+)) [3]: 6.81 log2; Intensity of the level of expression in log2 in pyramidal cells (323(−)) [3]: 5.30 log2
hsa-miR-16: human miRNA, SEQ ID No. 10 (UAGCAGCACGUAAAUAUUGGCG; expressed or natural sequence; listed as Homo sapiens) | 2.01 | −1.17 | 2.22 | 1.38 | 5.35 | 3.13 | 5.14 | 3.97 | 5.35 | 2.07 | −0.36 | −0.36 | 1.59 | −0.11 | −0.11 | 9.47 | 11.54 | 11.18 | 11.06 | −0.48 | Intensity of the level of expression in log2 in basal cells (323(+)) [3]: 9.10 log2; Intensity of the level of expression in log2 in pyramidal cells (323(−)) [3]: 8.62 log2
hsa-miR-26b: human miRNA, SEQ ID No. 29 (UUCAAGUAAUUCAGGAUAGGU; expressed or natural sequence; listed as Homo sapiens) | 0.09 | 0.05 | 0.92 | 0.78 | 6.81 | 6.84 | 6.93 | 6.97 | 7.75 | 1.94 | −0.37 | −0.37 | 1.65 | 0.08 | 0.08 | 7.97 | 9.91 | 9.54 | 9.62 | −1.47 | Intensity of the level of expression in log2 in basal cells (323(+)) [3]: 8.75 log2; Intensity of the level of expression in log2 in pyramidal cells (323(−)) [3]: 7.28 log2
hsa-miR-100: human miRNA, SEQ ID No. 1 (AACCCGUAGAUCCGAACUUGUG; expressed or natural sequence; listed as Homo sapiens) | −1.05 | −2.36 | −1.72 | 1.69 | 9.00 | 10.72 | 9.67 | 7.32 | 9.00 | −0.46 | −1.25 | −1.25 | −1.49 | 0.22 | 0.22 | 8.00 | 7.55 | 6.29 | 6.52 | 1.62 | Intensity of the level of expression in log2 in basal cells (323(+)) [3]: 3.28 log2; Intensity of the level of expression in log2 in pyramidal cells (323(−)) [3]: 4.90 log2
